Test results reported in ChEMBL document CHEMBL1148657, “Diels-Alder/thiol-olefin co-oxygenation approach to antimalarials incorporating the 2,3-dioxabicyclo[3.3.1]nonane pharmacophore” (Bioorg Med Chem Lett, 2006).

These compounds were tested on Plasmodium falciparum (assay: Antimalarial activity against Plasmodium falciparum NF54). Details: not given.
Type: functional, organism-based

| SMILES | IC50 [nM] |
| --- | --- |
| CC1(OCc2ccccc2)CCC2CC1OO[C@@]2(C)CS(=O)(=O)c1ccccc1 (stereo partly drawn) | 6.5 |
| C[C@@H]1CC[C@H]2[C@@H](C)C(=O)O[C@@H]3O[C@@]4(C)CC[C@@H]1[C@]32OO4 [ARTEMISININ] | 8.9 |

Each compound was assayed on Plasmodium falciparum (assay: Antimalarial activity against chloroquine-resistant Plasmodium falciparum K1). Details: not given.
Type: functional, organism-based

| SMILES | IC50 [nM] |
| --- | --- |
| CC(=O)OC1(C)CCC2CC1OO[C@]2(/C=C\c1ccccc1)c1ccccc1 (stereo partly drawn) | 23 |

Same assay, conditions: Plasmodium falciparum, K1

| SMILES | IC50 [nM] |
| --- | --- |
| CC(=O)OC1(C)CCC2CC1OO[C@@]2(CS(=O)(=O)c1ccccc1)c1ccccc1 (stereo partly drawn) | 42 |
| CC1(O)CCC2CC1OO[C@@]2(CSc1ccc(Cl)cc1)c1ccccc1 (stereo partly drawn) | 541 |
| CC1(O)CCC2CC1OO[C@]2(CS(=O)(=O)c1ccc(Cl)cc1)c1ccccc1 (stereo partly drawn) | 225 |
| CC1(O)CCC2CC1OO[C@@]2(CS(=O)(=O)c1ccccc1)c1ccccc1 (stereo partly drawn) | 92 |
| CC(=O)OC1(C)CCC2CC1OO[C@@]2(CSc1ccccc1)c1ccccc1 (stereo partly drawn) | 124 |
| CC1(O)CCC2CC1OO[C@]2(CSc1ccccc1)c1ccccc1 (stereo partly drawn) | 298 |
| CC1(O)CCC2CC1OO[C@]2(CSc1ccc(Cl)cc1)c1ccccc1 (stereo partly drawn) | 247 |
| CC1(O)CCC2CC1OO[C@]2(CS(=O)(=O)c1ccccc1)c1ccccc1 (stereo partly drawn) | 230 |
| CC(=O)OC1(C)CCC2CC1OO[C@]2(/C=C\c1ccccc1)c1ccccc1 (stereo partly drawn) | 34 |
| O=C(CS(=O)(=O)c1ccccc1)c1ccccc1 | 1000 |
| CC1(O)CCC2CC1OO[C@@]2(CS(=O)(=O)c1ccc(Cl)cc1)c1ccccc1 (stereo partly drawn) | 107 |
| CC1(O)CCC2CC1OO[C@@]2(CSc1ccccc1)c1ccccc1 (stereo partly drawn) | 81 |
| CC(=O)OC1(C)CCC2CC1OO[C@]2(CSc1ccccc1)c1ccccc1 (stereo partly drawn) | 164 |
| CC(=O)OC1(C)CCC2CC1OO[C@]2(CS(=O)(=O)c1ccccc1)c1ccccc1 (stereo partly drawn) | 72 |
| C[C@@H]1C(=O)C[C@H]2C[C@@H]1OO[C@@]2(C)/C=C\c1ccc(C(F)(F)F)cc1C(F)(F)F [ARTEFLENE] | 76 |
